Legend:
MRSA 15187 = test: MIC by agar incorporation method, MRSA 15187; type: cell-based, Methicillin Resistant Staphylococcus aureus; design: unit not given here; conditions: Mueller Hinton agar, 10^4 CFU/spot, 24 hours
Description: 2) MRSA 15187—Methicillin Resistant Staphylococcus aureus

Strep. pne. ATCC 6303 = test: MIC by agar incorporation method, S. pneum 6303; type: cell-based, Streptococcus pneumoniae; conditions: Mueller Hinton agar, 10^4 CFU/spot, 18 hours
Description: 5) Strep. pne. ATCC 6303—Streptococcus pneumoniae ATCC 6303

MRSA 562 = test: MIC by agar incorporation method, MRSA 562; type: cell-based, Methicillin Resistant Staphylococcus aureus; design: unit not given here; conditions: Mueller Hinton agar, 10^4 CFU/spot, 24 hours
S. pneum AB 34 = test: MIC by agar incorporation method, S. pneum AB 34; type: cell-based, Streptococcus pneumoniae; design: unit not given here; conditions: Mueller Hinton agar, 10^4 CFU/spot, 18 hours
S.aureus ATCC 25923 = test: MIC by agar incorporation method, S.aureus 25923; type: cell-based, Staphylococus aureus; design: unit not given here; conditions: Mueller Hinton agar, 10^4 CFU/spot, 18 hours
VRE 6A = test: MIC by agar incorporation method, VRE 6A; type: cell-based, Enterococcus faecium; design: unit not given here; conditions: Mueller Hinton agar, 10^4 CFU/spot, 18 hours
Description: 4) Ent. faecium […]—Enterococcus faecium 6A Van®, Cipro®

MRSA 33 = test: MIC by agar incorporation method, MRSA 33; type: cell-based, Methicillin Resistant Staphylococcus aureus; design: unit not given here; conditions: Mueller Hinton agar, 10^4 CFU/spot, 24 hours
Strep.pyog. ATCC 19615 = test: MIC by agar incorporation method, S.pyogenes 19615; type: cell-based, Streptococcus pyogenes; design: unit not given here; conditions: Mueller Hinton agar, 10^4 CFU/spot, 18 hours
Description: 6) Strep.pyog. ATCC 19615—Streptococcus pyogenes

Ent. faecalis ATCC 29212 = test: MIC by agar incorporation method, E.faecalis 29212; type: cell-based, Enterococcus faecalis; design: unit not given here; conditions: Mueller Hinton agar, 10^4 CFU/spot, 18 hours
Description: 3) Ent. faecalis ATCC 29212—Enterococcus faecalis ATCC 29212

## CC(=O)NC[C@H]1CN(c2ccc(N3CCN(Cc4ccoc4[N+](=O)[O-])CC3)c(F)c2)C(=O)O1 [Compound No. 18, (S)-N-[[3-[3-Fluoro-4-[N-1[4-{3-furyl(2-nitro)methyl}]piperazinyl]phenyl]-2-oxo-5-oxazolidinyl]methyl]acetamide]
MRSA 15187
  In Vitro (MIC) MRSA 15187: 4
Strep. pne. ATCC 6303
  In Vitro (MIC) S. pneum 6303: 1 µg/mL
MRSA 562
  In Vitro (MIC) MRSA 562: 4
S. pneum AB 34
  In Vitro (MIC) S. pneum AB 34: 2
S.aureus ATCC 25923
  In Vitro (MIC) S.aureus 25923: 8
VRE 6A
  In Vitro (MIC) VRE 6A: 4
MRSA 33
  In Vitro (MIC) MRSA 33: 4
Strep.pyog. ATCC 19615
  In Vitro (MIC) S.pyogenes 19615: 1
Ent. faecalis ATCC 29212
  In Vitro (MIC) E.faecalis 29212: 4

## CC(=O)NC[C@H]1CN(c2ccc(N3CCN(Cc4cc(N(C)C)c([N+](=O)[O-])s4)CC3)c(F)c2)C(=O)O1 [Compound No. 19, (S)-N-[[3-[3-Fluoro-[N-1-[4-{2-thiophen-(4-dimethylamino-5-nitro)methyl}]piperazinyl]phenyl]-2-oxo-5-oxazolidinyl]methyl]-acetamide]
MRSA 15187
  In Vitro (MIC) MRSA 15187: 4
Strep. pne. ATCC 6303
  In Vitro (MIC) S. pneum 6303: 2 µg/mL
MRSA 562
  In Vitro (MIC) MRSA 562: 8
S. pneum AB 34
  In Vitro (MIC) S. pneum AB 34: 2
S.aureus ATCC 25923
  In Vitro (MIC) S.aureus 25923: 4
VRE 6A
  In Vitro (MIC) VRE 6A: 4
MRSA 33
  In Vitro (MIC) MRSA 33: 8
Strep.pyog. ATCC 19615
  In Vitro (MIC) S.pyogenes 19615: 2
Ent. faecalis ATCC 29212
  In Vitro (MIC) E.faecalis 29212: 4

## CC(=O)NC[C@H]1CN(c2ccc(N3CCN(Cc4cc(Br)c([N+](=O)[O-])o4)CC3)c(F)c2)C(=O)O1 [Compound No. 25, (S)-N-[[3-[3-Fluoro-4[N-1-[4-{2-Furyl-4-bromo-(nitro)methyl}]piperazinyl]-phenyl]-2-oxo-5-oxazolidinyl]methyl]acetamide]
MRSA 15187
  In Vitro (MIC) MRSA 15187: 1
Strep. pne. ATCC 6303
  In Vitro (MIC) S. pneum 6303: 2 µg/mL
MRSA 562
  In Vitro (MIC) MRSA 562: 2
S. pneum AB 34
  In Vitro (MIC) S. pneum AB 34: 2
S.aureus ATCC 25923
  In Vitro (MIC) S.aureus 25923: 2
VRE 6A
  In Vitro (MIC) VRE 6A: 2
MRSA 33
  In Vitro (MIC) MRSA 33: 2
Strep.pyog. ATCC 19615
  In Vitro (MIC) S.pyogenes 19615: 0.5
Ent. faecalis ATCC 29212
  In Vitro (MIC) E.faecalis 29212: 2

## CC(=O)NC[C@H]1CN(c2ccc(N3CCN(C(=O)c4ccc(NC(C)=O)s4)CC3)c(F)c2)C(=O)O1 [Compound No. 29, (S)-N-[[3-[3-Fluoro-1-[N-1-[4-{2-thiophenoyl-(5-acetamido)}]piperazinyl]phenyl]-2-oxo-5-oxazolidinyl]methyl]acetamide]
MRSA 15187
  In Vitro (MIC) MRSA 15187: 4
Strep. pne. ATCC 6303
  In Vitro (MIC) S. pneum 6303: 0.5 µg/mL
MRSA 562
  In Vitro (MIC) MRSA 562: 4
S. pneum AB 34
  In Vitro (MIC) S. pneum AB 34: 1
S.aureus ATCC 25923
  In Vitro (MIC) S.aureus 25923: 8
VRE 6A
  In Vitro (MIC) VRE 6A: 4
MRSA 33
  In Vitro (MIC) MRSA 33: 4
Strep.pyog. ATCC 19615
  In Vitro (MIC) S.pyogenes 19615: 0.5
Ent. faecalis ATCC 29212
  In Vitro (MIC) E.faecalis 29212: 4

## CC(=O)NC[C@H]1CN(c2ccc(N3CCN(C(=O)c4cc([N+](=O)[O-])[nH]n4)CC3)c(F)c2)C(=O)O1 [Compound No. 31]
MRSA 15187
  In Vitro (MIC) MRSA 15187: >8
Strep. pne. ATCC 6303
  In Vitro (MIC) S. pneum 6303: 1 µg/mL
MRSA 562
  In Vitro (MIC) MRSA 562: >8
S. pneum AB 34
  In Vitro (MIC) S. pneum AB 34: 1
S.aureus ATCC 25923
  In Vitro (MIC) S.aureus 25923: >8
VRE 6A
  In Vitro (MIC) VRE 6A: 4
MRSA 33
  In Vitro (MIC) MRSA 33: >8
Strep.pyog. ATCC 19615
  In Vitro (MIC) S.pyogenes 19615: 1
Ent. faecalis ATCC 29212
  In Vitro (MIC) E.faecalis 29212: 4

## CC(=O)NC[C@H]1CN(c2ccc(N3CCN(C(=O)c4ccc(N)s4)CC3)c(F)c2)C(=O)O1 [Compound No. 34, (S)-N-[[3-[3-Fluoro-4-[N-1-[4-{2-thiophenoyl-(5-amino)}]piperazinyl]phenyl]-2-oxo-5-oxazolidinyl]methyl]acetamide]
MRSA 15187
  In Vitro (MIC) MRSA 15187: 8
Strep. pne. ATCC 6303
  In Vitro (MIC) S. pneum 6303: 4 µg/mL
MRSA 562
  In Vitro (MIC) MRSA 562: 4
S. pneum AB 34
  In Vitro (MIC) S. pneum AB 34: 4
S.aureus ATCC 25923
  In Vitro (MIC) S.aureus 25923: 8
VRE 6A
  In Vitro (MIC) VRE 6A: 4
MRSA 33
  In Vitro (MIC) MRSA 33: 8
Strep.pyog. ATCC 19615
  In Vitro (MIC) S.pyogenes 19615: 1
Ent. faecalis ATCC 29212
  In Vitro (MIC) E.faecalis 29212: 4

## CC(=O)NC[C@H]1CN(c2ccc(N3CCN(C(=O)c4ccc(-c5ccc(Cl)cc5[N+](=O)[O-])o4)CC3)c(F)c2)C(=O)O1 [Compound No. 35]
MRSA 15187
  In Vitro (MIC) MRSA 15187: 1
Strep. pne. ATCC 6303
  In Vitro (MIC) S. pneum 6303: 1 µg/mL
MRSA 562
  In Vitro (MIC) MRSA 562: 1
S. pneum AB 34
  In Vitro (MIC) S. pneum AB 34: 1
S.aureus ATCC 25923
  In Vitro (MIC) S.aureus 25923: 1
VRE 6A
  In Vitro (MIC) VRE 6A: 1
MRSA 33
  In Vitro (MIC) MRSA 33: 1
Strep.pyog. ATCC 19615
  In Vitro (MIC) S.pyogenes 19615: 1
Ent. faecalis ATCC 29212
  In Vitro (MIC) E.faecalis 29212: 0.5

## CC(=O)NC[C@H]1CN(c2ccc(N3CCN(C(=O)c4occc4C)CC3)c(F)c2)C(=O)O1 [Compound No. 36, (S)-N-[[3-[3-Fluoro-4-[N-1-[4-{2-furoyl-(3-methyl)}]piperazinyl]phenyl]-2-oxo-5-oxazolidinyl]methyl]acetamide]
MRSA 15187
  In Vitro (MIC) MRSA 15187: 2
Strep. pne. ATCC 6303
  In Vitro (MIC) S. pneum 6303: 0.5 µg/mL
MRSA 562
  In Vitro (MIC) MRSA 562: 2
S. pneum AB 34
  In Vitro (MIC) S. pneum AB 34: 1
S.aureus ATCC 25923
  In Vitro (MIC) S.aureus 25923: 2
VRE 6A
  In Vitro (MIC) VRE 6A: 1
MRSA 33
  In Vitro (MIC) MRSA 33: 2
Strep.pyog. ATCC 19615
  In Vitro (MIC) S.pyogenes 19615: 1
Ent. faecalis ATCC 29212
  In Vitro (MIC) E.faecalis 29212: 2

## CC(=O)NC[C@H]1CN(c2ccc(N3CCN(C(=O)c4oc([N+](=O)[O-])cc4C)CC3)c(F)c2)C(=O)O1 [Compound No. 37, (S)-N-[[3-[3-Fluoro-4-[N-1-[4-{2-furoyl-(3-methyl-5-nitro)}]piperazinyl]phenyl]-2-oxo-5-oxazolidinyl]methyl]acetamide]
MRSA 15187
  In Vitro (MIC) MRSA 15187: 0.5
Strep. pne. ATCC 6303
  In Vitro (MIC) S. pneum 6303: 0.25 µg/mL
MRSA 562
  In Vitro (MIC) MRSA 562: 0.5
S. pneum AB 34
  In Vitro (MIC) S. pneum AB 34: 0.125
S.aureus ATCC 25923
  In Vitro (MIC) S.aureus 25923: 0.5
VRE 6A
  In Vitro (MIC) VRE 6A: 0.5
MRSA 33
  In Vitro (MIC) MRSA 33: 0.5
Strep.pyog. ATCC 19615
  In Vitro (MIC) S.pyogenes 19615: <0.06
Ent. faecalis ATCC 29212
  In Vitro (MIC) E.faecalis 29212: 0.25

## CC(=O)NC[C@H]1CN(c2ccc(N3CCN(C(=O)c4cc(N(C)C)c([N+](=O)[O-])s4)CC3)c(F)c2)C(=O)O1 [Compound No. 38]
MRSA 15187
  In Vitro (MIC) MRSA 15187: 4
Strep. pne. ATCC 6303
  In Vitro (MIC) S. pneum 6303: 2 µg/mL
MRSA 562
  In Vitro (MIC) MRSA 562: 4
S. pneum AB 34
  In Vitro (MIC) S. pneum AB 34: 2
S.aureus ATCC 25923
  In Vitro (MIC) S.aureus 25923: 8
VRE 6A
  In Vitro (MIC) VRE 6A: 4
MRSA 33
  In Vitro (MIC) MRSA 33: 4
Strep.pyog. ATCC 19615
  In Vitro (MIC) S.pyogenes 19615: 2
Ent. faecalis ATCC 29212
  In Vitro (MIC) E.faecalis 29212: 4

## CC(=O)NC[C@H]1CN(c2ccc(N3CCN(C(=O)c4ccc([N+](=O)[O-])o4)CC3)c(F)c2)C(=O)O1 [Compound No. 39, (S)-N-[[3-[3-Fluoro-4-[N-1-[4-{2-Furoyl-(5-nitro)acylic}]piperazinyl]phenyl]-2-oxo-5-oxazolidinyl]methyl]-acetamide]
MRSA 15187
  In Vitro (MIC) MRSA 15187: 0.5
Strep. pne. ATCC 6303
  In Vitro (MIC) S. pneum 6303: 0.5 µg/mL
MRSA 562
  In Vitro (MIC) MRSA 562: 0.25
S. pneum AB 34
  In Vitro (MIC) S. pneum AB 34: 4
S.aureus ATCC 25923
  In Vitro (MIC) S.aureus 25923: 0.5
VRE 6A
  In Vitro (MIC) VRE 6A: <0.125
MRSA 33
  In Vitro (MIC) MRSA 33: 0.25
Strep.pyog. ATCC 19615
  In Vitro (MIC) S.pyogenes 19615: <0.125
Ent. faecalis ATCC 29212
  In Vitro (MIC) E.faecalis 29212: 0.5

## CC(=O)NC[C@H]1CN(c2ccc(N3CCN(C(=O)C=Cc4ccc([N+](=O)[O-])s4)CC3)c(F)c2)C(=O)O1 [Compound No. 40, (S)-N-[[3-[3-Fluoro-4-[N-1-[4-{2-thiophenoyl-(5-nitro)acrylic}]piperazinyl]phenyl]-2-oxo-5-oxazolidinyl]methyl]-acetamide]
MRSA 15187
  In Vitro (MIC) MRSA 15187: 0.25
Strep. pne. ATCC 6303
  In Vitro (MIC) S. pneum 6303: 1 µg/mL
MRSA 562
  In Vitro (MIC) MRSA 562: 1
S. pneum AB 34
  In Vitro (MIC) S. pneum AB 34: 1
S.aureus ATCC 25923
  In Vitro (MIC) S.aureus 25923: 0.5
VRE 6A
  In Vitro (MIC) VRE 6A: 0.5
MRSA 33
  In Vitro (MIC) MRSA 33: 0.5
Strep.pyog. ATCC 19615
  In Vitro (MIC) S.pyogenes 19615: 0.5
Ent. faecalis ATCC 29212
  In Vitro (MIC) E.faecalis 29212: 1
